Source: US10106535B2, “Histone deacetylase inhibitors and compositions and methods of use thereof” (CHDI Foundation, Inc., priority 2013, dated 2018)

Test system: cellular histone deacetylase enzymatic activity in Jurkat E6-1 cells
Assay: Inhibition of cellular HDAC activity in Jurkat E6-1 cells, fluorogenic substrate Boc-Lys(Tfa)-AMC
Format: cell-based
Conditions: Homo sapiens, read-out: Cell IC50
Description: Example 50: Analysis of Inhibition of Cellular HDAC Activity with Class IIa Histone Deacetylase (HDAC) Inhibitors
The potency of Class IIa Histone Deacetylase (HDAC) inhibitors is quantified by measuring the cellular histone deacetylase enzymatic activity using the fluorogenic substrate, Boc-Lys(Tfa)-AMC. After penetration in Jurkat E6-1 cells, the substrate is deacetylated to Boc-Lys-AMC. After cell lysis and cleavage by trypsin, the fluorophore AMC is released from the deacetylated substrate only. The fluorescence of the sample is directly related to the histone deacetylase activity in the sample.
Jurkat E6.1 cells are cultured according to standard cell culture protocols in Jurkat E6.1 Growth Media (RPMI without phenol red, 10% FBS, 10 mM HEPES, and 1 mM Sodium Pyruvate). Jurkat E6.1 cells are counted using a Coulter Counter and resuspended in Jurkat E6.1 growth media at a concentration of 75,000 cells/35 μl. 35 μl or 75,000 cells is seeded into Greiner microtitre assay plates. The plates are then incubated at 37° C. and 5% CO2 while other assay components are being prepared.
(§1) Serial dilutions of the HDAC inhibitors and control reference compound (1-(5-(3-((4-(1,3,4-oxadiazol-2-yl)phenoxy)methyl)-1,2,4-oxadiazol-5-yl)thiophen-2-yl)-2,2,2-trifluoroethanone) are made by first resuspending the lyophilized compound to a final concentration of 10 mM in 100% DMSO. Stocks of 70 μl aliquots of the 10 mM compound in DMSO are prepared and stored at −20° C. From one stock aliquot of each compound to be tested and the reference compound, a 16-point serial dilution is prepared according to Table 1 using a 125 μl 16-channel Matrix multi-channel pipette.
2 μl (200×) of each diluted solution and each control (full activity: 100% DMSO alone or full inhibition 1 mM) is stamped into V-bottom polypropylene 384-well compound plates using either the Bravo, Janus, or 12.5 μl 16-channel Matrix multi-channel pipette. Each well with the 200× compound solution is diluted 1:20 by the addition of 38 μl Jurkat assay buffer+DMSO (9.5% DMSO, RPMI without phenol red, 0.09% FBS, 9 mM Hepes, and 0.9 mM Sodium Pyruvate equilibrated to room temperature)
5× (500 μM) substrate is prepared just prior to the addition to the assay. The 5× substrate is prepared by diluting a 100 mM Boc-Lys(Tfa)-AMC in DMSO solution 1:200 by adding it drop-wise to Jurkat assay medium (RPMI without phenol red, 0.1% FBS, 10 mM Hepes, and 1 mM Sodium Pyruvate equilibrated to 37° C.) while vortexing at slow speed to prevent precipitation.
10 ml of 3× lysis buffer is prepared with 8.8 ml of 3× stock lysis buffer (50 mM Tris-HCl, pH 8.0, 137 mM NaCl, 2.7 mM KCl, 1 mM MgCl2, 1% Nonidet P40 Substitute equilibrated to room temperature) and 1.2 ml of 3 mg/ml Trypsin equilibrated to room temperature.
5 μl of each solution of 1:20 diluted compound from above is transferred to the Greiner microtitre assay plates with 75,000 cells/well using the Bravo. Cells are then incubated for 2 hours at 37° C. and 5% CO2. The assay is then started by adding 10 μl of 5× (500 μM) substrate to the assay plate using either the Bravo or 16-channel Matrix multi-channel pipette. The cells are then incubated for 3 hours at 37° C. and 5% CO2. Next, 25 μl of 3× lysis buffer is added to each well using either the 125 μl 16 channel pipette or the Bravo. The assay plate is then incubated overnight (15-16 hours) at 37° C. and 5% CO2. The following day, the plates are shaken on an orbital shaker for 1 minute at 900 rpm. Finally the top read fluorescence (Excitation: 355 nm, Emission: 460 nm) is measured using PerkinElmer EnVision.

Compared with `Cc1ncc(C2=C[C@](C(=O)NO)(c3cccc(F)c3C)CC2)cn1` [Example 10, (S)-1-(3-fluoro-2-methylphenyl)-N-hydroxy-3-(2-methylpyrimidin-5-yl)cyclopent-2-enecarboxamide], `Cc1ncc(Cl)cc1C1=C[C@](C(=O)NO)(c2cccc(F)c2C)CC1` [Example 36, (S)-3-(5-chloro-2-methylpyridin-3-yl)-1-(3-fluoro-2-methylphenyl)-N-hydroxycyclopent-2-enecarboxamide] is 3.2-fold lower in IC50: 380 nM for the first, 120 nM for the second.

Going from `Cc1c(F)cccc1[C@@]1(C(=O)NO)C=C(C2CC2)CC1` [Example 32, (S)-3-cyclopropyl-1-(3-fluoro-2-methylphenyl)-N-hydroxycyclopent-2-enecarboxamide] to `Cc1ncccc1C1=C[C@](C(=O)NO)(c2cccc(F)c2C)CC1` [Example 37, (S)-1-(3-fluoro-2-methylphenyl)-N-hydroxy-3-(2-methylpyridin-3-yl)cyclopent-2-enecarboxamide], the IC50 falls from 730 nM to 90 nM (8.1-fold). The second is the more potent here.

First: O=C(NO)[C@]1(c2ccccc2)C=C(c2ccccc2)CC1 [Example 33, (S)-N-hydroxy-1,3-diphenylcyclopent-2-enecarboxamide]
Second: O=C(NO)[C@@]1(c2ccccc2)C=C(c2ccccc2)CC1 [Example 34, (R)-N-hydroxy-1,3-diphenylcyclopent-2-enecarboxamide]
The IC50 of the first is lower: 2500 nM for the first, over 50000 nM for the second. The first is the more potent here.

Compared with `O=C(NO)[C@]1(c2ccccc2)C=C(c2cncc(F)c2)CC1` [Example 35, (S)-3-(5-fluoropyridin-3-yl)-N-hydroxy-1-phenylcyclopent-2-enecarboxamide], `O=C(NO)C1(c2ccccc2)CC=C(c2cncc(F)c2)CC1` (stereo not shown) [Example 43, 4-(5-fluoropyridin-3-yl)-N-hydroxy-1,2,3,6-tetrahydro-[1,1′-biphenyl]-1-carboxamide] is 13-fold higher in IC50: 3100 nM for the first, 39000 nM for the second.

First: Cc1c(F)cccc1[C@@]1(C(=O)NO)C=C(c2ccc3cnn(C)c3c2)CC1 [Example 38, (S)-1-(3-fluoro-2-methylphenyl)-N-hydroxy-3-(1-methyl-1H-indazol-6-yl)cyclopent-2-enecarboxamide]
Second: Cc1c([C@@]2(C(=O)NO)C=C(c3ccc4cnn(C)c4c3)CC2)ccc(F)c1F [Example 42, (S)-1-(3,4-difluoro-2-methylphenyl)-N-hydroxy-3-(1-methyl-1H-indazol-6-yl)cyclopent-2-enecarboxamide]
The IC50 of the first is 2-fold lower: 10 nM for the first, 20 nM for the second.

First: Cc1c(F)cccc1[C@@]1(C(=O)NO)C=C(c2ccc3cnn(C(F)F)c3c2)CC1 [Example 39, (S)-3-(1-(difluoromethyl)-1H-indazol-6-yl)-1-(3-fluoro-2-methylphenyl)-N-hydroxycyclopent-2-enecarboxamide]
Second: Cc1c(F)cccc1[C@@]1(C(=O)NO)C=C(c2ccc3scnc3c2)CC1 [Example 40, (S)-3-(benzo[d]thiazol-5-yl)-1-(3-fluoro-2-methylphenyl)-N-hydroxycyclopent-2-enecarboxamide]
The IC50 of the first is 1.7-fold lower: 30 nM for the first, 50 nM for the second.

Going from `Cc1c(F)cccc1[C@@]1(C(=O)NO)C=C(c2cc3ccccc3s2)CC1` [Example 41, (S)-3-(benzo[b]thiophen-2-yl)-1-(3-fluoro-2-methylphenyl)-N-hydroxycyclopent-2-enecarboxamide] to `Cc1c(F)cccc1C1(C(=O)NO)CC=C(c2ccc3nccnc3c2)CC1` (stereo not shown) [Example 45, 3′-fluoro-N-hydroxy-2′-methyl-4-(quinoxalin-6-yl)-1,2,3,6-tetrahydro-[1,1′-biphenyl]-1-carboxamide], the IC50 rises from 40 nM to 520 nM (13-fold). The first is the more potent here.

With `Cc1c(F)cccc1C1(C(=O)NO)CC=C(c2cncc(F)c2)CC1` (stereo not shown) [Example 44, 3′-fluoro-4-(5-fluoropyridin-3-yl)-N-hydroxy-2′-methyl-1,2,3,6-tetrahydro-[1,1′-biphenyl]-1-carboxamide] the IC50 was 670 nM.

Biological target: human catalytic domain HDAC4 protein (amino acids 648-1032) (Homo sapiens (Human), UniProt P56524)
Sequence (P56524 648-1032): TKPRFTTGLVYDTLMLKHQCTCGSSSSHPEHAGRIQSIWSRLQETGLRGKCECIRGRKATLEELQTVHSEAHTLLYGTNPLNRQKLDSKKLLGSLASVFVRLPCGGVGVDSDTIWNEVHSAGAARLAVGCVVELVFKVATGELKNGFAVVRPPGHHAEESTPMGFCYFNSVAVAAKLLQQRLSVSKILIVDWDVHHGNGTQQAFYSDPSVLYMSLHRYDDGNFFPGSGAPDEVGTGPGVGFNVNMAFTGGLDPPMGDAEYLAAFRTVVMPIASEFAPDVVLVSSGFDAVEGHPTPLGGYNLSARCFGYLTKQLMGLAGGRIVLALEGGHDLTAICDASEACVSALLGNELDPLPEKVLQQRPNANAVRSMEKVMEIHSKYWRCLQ
Assay: Inhibition of HDAC4 catalytic domain enzymatic activity, fluorogenic substrate Boc-Lys(Tfa)-AMC
Conditions: read-out: Biochemical HDAC-4 IC50
Description: The potency of Class IIa Histone Deacetylase (HDAC) inhibitors is quantified by measuring the Histone Deacetylase 4 (HDAC4) catalytic domain enzymatic activity using the fluorogenic substrate, Boc-Lys(Tfa)-AMC. The substrate is deacetylated to Boc-Lys-AMC by HDAC4. Cleavage by trypsin results in the release of the fluorophore AMC from the deacetylated substrate. The fluorescence of the sample is directly related to the histone deacetylase activity in the sample.
as §1, with “100% dimethyl sulfoxide (DMSO).” for “100% DMSO.”, “of 60” for “of 70”, “Table 7” for “Table 1”, “multi-channel pipette (Matrix Technologies Ltd). […]” for “multi-channel pipette.”
5 μl of each solution of 1:20 diluted compound from above is transferred to a clear bottomed, black, 384-well assay plate using the Bravo or the Janus (384-well MDT head from Perkin Elmer). […] Finally, the fluorescence is measured (Excitation: 355 nm, Emission: 460 nm) using PerkinElmer EnVision in top read mode.

In the case of `Cc1ncc(C2=C[C@](C(=O)NO)(c3cccc(F)c3C)CC2)cn1` [Example 10, (S)-1-(3-fluoro-2-methylphenyl)-N-hydroxy-3-(2-methylpyrimidin-5-yl)cyclopent-2-enecarboxamide], the IC50 is reported as 40 nM.
